Results from patent US10464925B2, “Methods to induce targeted protein degradation through bifunctional molecules” (Dana-Farber Cancer Institute, Inc., priority 2015, dated 2019).
Like-named read-outs stand apart in the source and are kept apart here.

What was measured:
CRBN-DDB1 = target: T1, CRBN-DDB1 (Homo sapiens, UniProt Q96SW2); experiment: CRBN-DDB1 Ligand-Displacement AlphaScreen Assay (thalidomide competition); format: binding;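 also: streptavidin donor and nickel chelate acceptor bead proximity signal after 30 min incubation, normalized with no-protein background as 0% and DMSO wells as 100% activity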
T1 construct: 6xHis (given for the complex); made in house; host or cells: Sf9 cells (Invitrogen), pFastBac

[1] = tested on: IKZF1 adjoined to nanoluciferase (Nluc); experiment: IKZF1 Dual Luciferase Assay; format: cell-based; parameters: Nluc/Fluc IKZF1 Max Degradation: unit: %; conditions: 293 FT cells, 4 hours; for IC50: read-out: Nluc/Fluc IKZF1 IC50
BRDT = BRDT (Homo sapiens, UniProt Q58F21); experiment: BRDT IC50 (Table 4); format: binding; conditions: read-out: IC50 (nM) BRDT
[2] = target: T2, BRD4 adjoined to nanoluciferase (Nluc) (Homo sapiens, UniProt O60885+Q96SW2); experiment: BRD4 Dual Luciferase Assay; format: cell-based; conditions: for Emax: BRD4 remaining at Emax, read-out: BRD4− Emax (percent remaining);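 as to all read-outs here: transduced reporter cells exposed to compound for 4 h, then Nluc and Fluc luminescence read, each normalized to DMSO controls and expressed as Nluc/Fluc ratio per well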
T2 construct: expressed in transfected cells

BRD4 [3] = target: T3, BRD4 (Homo sapiens, UniProt O60885); experiment: BRD4 Cell Western (BRD4 levels in 293T cells, LiCOR); format: cell-based; parameters: BRD4 levels in the cells after the dBET treatment; endogenous in cells; conditions: HEK-293T; read-out: BRD4 max degradation(%) Cell Western
797 = experiment: Cell viability, 797 cells (Table 4); format: cell-based; conditions: read-out: IC50 (nM) 797
CUTL1 = experiment: Cell viability, ATPlite 48 hours, CUTLL1; format: cell-based; conditions: CUTL1 cells
DND41 = experiment: Cell viability, ATPlite 48 hours, DND41; format: cell-based; conditions: DND41 cells
MOLT4 = experiment: Cell viability, ATPlite 48 hours, MOLT4; format: cell-based; conditions: Homo sapiens, MOLT-4; MOLT4 cells
NGP = experiment: Cell viability, ATPlite 72 hours; format: cell-based; conditions: NGP cells, Table 4; read-out: IC50 (nM) NGP
MV4; 11 = experiment: Cell viability, ATPlite 48 hours, MV4-11; format: cell-based; conditions: Homo sapiens, 11 cells
CRBN = target: T4, CRBN (Homo sapiens, UniProt Q96SW2); experiment: Intracellular CRBN Engagement Assay (dFKBP7 rescue); format: cell-based; conditions: competition with 80 nM dFKBP7, 3 hours; read-out: FKBP7 rescue (EC50)
T4 construct: endogenous in cells

BRD4 [4] = target: T3, BRD4; experiment: BRD4 AlphaScreen; format: binding; parameters: […]; His tag (inferred from capture on Ni-coated acceptor beads)
[5] = 4 hours, read-out: max degradation (dual luc)
[6] = read-out: BRD4 max degradation(%) Dual Luciferase
[7] = biotin-thalidomide competition, read-out: THAL ALPHA (IC50)

SMILES | IC50 (CRBN-DDB1; read-out: CRBN alpha IC50) [µM] | IC50 [1] [µM] | IC50 (BRDT) [nM] | Dmax [2, 5] [%] | Emax [2] [%] | Dmax [2, 6] [%] | Dmax (BRD4 [3]) [%] | further results
CC(=O)NCc1cccc2c1C(=O)N(C1CCC(=O)NC1=O)C2=O [Compound D-23, N-((2-(2,6-dioxopiperidin-3-yl)-1,3-dioxoisoindolin-4-yl)methyl)acetamide] | 0.646 |  |  |  |  |  |  | Nluc/Fluc IKZF1 Max Degradation [1]: 59.03
O=C1CCC(N2C(=O)c3ccc(F)cc3C2=O)C(=O)N1 [Compound D-24, 2-(2,6-dioxopiperidin-3-yl)-5-fluoroisoindoline-1,3-dione] | 0.493 | > 50 |  |  |  |  |  | 
O=C1CCC(N2C(=O)c3ccc(NCc4ccccc4)cc3C2=O)C(=O)N1 [Compound D-25, 5-(benzylamino)-2-(2,6-dioxopiperidin-3-yl)isoindoline-1,3-dione] | 0.0589 | > 50 |  |  |  |  |  | 
CC(C)Nc1ccc2c(c1)C(=O)N(C1CCC(=O)NC1=O)C2=O [Compound D-26, 2-(2,6-dioxopiperidin-3-yl)-5-(isopropylamino)isoindoline-1,3-dione] | 0.113 | > 50 |  |  |  |  |  | 
CCN(CC)c1ccc2c(c1)C(=O)N(C1CCC(=O)NC1=O)C2=O [Compound D-27, 5-(diethylamino)-2-(2,6-dioxopiperidin-3-yl)isoindoline-1,3-dione] | 0.2 | > 50 |  |  |  |  |  | 
Cc1sc2c(c1C)C(c1ccc(Cl)cc1)=N[C@@H](CC(=O)NCCNC(=O)COc1cccc3c1C(=O)N(C1CCC(=O)NC1=O)C3=O)c1nnc(C)n1-2 (stereo partly shown) [dBET3] |  |  | 88 | 12.7 | 84 | 13 | 31.6 | Conc@Emax [2]: 0.5 µM
Cc1sc2c(c1C)C(c1ccc(Cl)cc1)=N[C@@H](CC(=O)NCCCCCCNC(=O)COc1cccc3c1C(=O)N(C1CCC(=O)NC1=O)C3=O)c1nnc(C)n1-2 (stereo partly shown) [dBET5] |  |  | 110 | 53 | 44.7 | 53 | 66 | 
CC[C@@H]1C(=O)N(C)c2cnc(Nc3ccc(C(=O)NCCCCCCNC(=O)COc4cccc5c4C(=O)N(C4CCC(=O)NC4=O)C5=O)cc3OC)nc2N1C1CCCC1 (stereo partly shown) [dBET7] |  |  | 549 | 54.1 | 43.7 | 54 | 63 | IC50 797: 16 nM; IC50 (CUTL1): 29.2 nM; IC50 (DND41): 31.4 nM; IC50 (MOLT4): 46.6 nM; Conc@Emax [2]: 0.5 µM; IC50 (NGP): 131 nM
CC[C@@H]1C(=O)N(C)c2cnc(Nc3ccc(C(=O)NCCCCCCCCNC(=O)COc4cccc5c4C(=O)N(C4CCC(=O)NC4=O)C5=O)cc3OC)nc2N1C1CCCC1 (stereo partly shown) [dBET8] |  |  | 820 |  |  |  |  | IC50 (CUTL1): 42 nM; IC50 (DND41): 47.2 nM; IC50 (MOLT4): 88.5 nM; IC50 (NGP): 153 nM
Cc1sc2c(c1C)C(c1ccc(Cl)cc1)=N[C@@H](CC(=O)NCCCOCCOCCOCCCNC(=O)COc1cccc3c1C(=O)N(C1CCC(=O)NC1=O)C3=O)c1nnc(C)n1-2 (stereo partly shown) [dBET9] |  |  | 52 | 24.8 | 71 | 25 | 41 | IC50 797: 296 nM; IC50 (CUTL1): 1550 nM; IC50 (DND41): 1520 nM; IC50 (MV4; 11): 28 nM; IC50 (NGP): 8420 nM
Cc1noc(C)c1-c1ccc(-c2nc3cnccn3c2NCC(=O)NCCCCNC(=O)COc2cccc3c2C(=O)N(C2CCC(=O)NC2=O)C3=O)cc1 (stereo not shown) [dBET13] |  |  |  |  |  |  |  | IC50 (CRBN-DDB1; [7]): 0.0107 µM; EC50 (CRBN): 220 µM; IC50 (BRD4 [4]; read-out: BRD4 Alpha (IC50)): 6930 nM; IC50 (BRD4 [4]; read-out: IC50 (nM) BRD4): 6930 nM
Cc1noc(C)c1-c1ccc(-c2nc3cnccn3c2NCC(=O)NCCCOCCOCCOCCCNC(=O)COc2cccc3c2C(=O)N(C2CCC(=O)NC2=O)C3=O)cc1 (stereo not shown) [dBET14] |  |  |  |  |  |  |  | IC50 (CRBN-DDB1; [7]): 0.0124 µM; EC50 (CRBN): 227 µM; IC50 (BRD4 [4]; read-out: BRD4 Alpha (IC50)): 8830 nM; IC50 (BRD4 [4]; read-out: IC50 (nM) BRD4): 8830 nM
